The values that follow come from patent US9850283B2, “Macrocyclic inhibitors of the PD-1/PD-L1 and CD80(B7-1)/PD-L1 protein/protein interactions” (BRISTOL-MYERS SQUIBB COMPANY, priority 2013, dated 2017).

One assay concerns the target T1, Human PD-L1/PD-1 (Homo sapiens, UniProt Q9NZQ7).
T1 construct: made in house; host or cells: HEK293T
The assay is described as follows: HTRF PD-1-Ig/PD-L1-His binding assay (human PD-L1). To be noted: cluster symbol; read-out: HTRF IC50 cluster. An outline of the steps: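 Readout: time-resolved FRET between Eu cryptate-labeled anti-Ig (1 nM final) and APC-labeled anti-His (20 nM final) antibodies. These detect interaction of Fc-fused PD-1 with His-tagged human PD-L1 in dPBS containing 0.1% BSA and 0.05% Tween-20.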

Assay [1] has as its target T2, LK35.2-hPD-L1 cells / PE-labeled PD-1-Ig (Homo sapiens, UniProt Q9NZQ7).
T2 construct: expressed in transfected cells; host or cells: LK35.2 mouse B cell line
Description: LK35.2-hPD-L1 cell binding high-content screening assay. The format is cell-based. The note with it: cell binding assay, cell line not given; cluster symbol; read-out: CBA IC50 cluster. An outline of the steps:
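Fluorescent PD-1-Ig binding to PD-L1-expressing LK35.2 cells, imaged after washing. Conditions: 1 nM PE-PD-1-Ig, 37 °C, 1 h, RPMI with 10% fetal calf serum.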

Positions of bridges follow the written chain, without caps; N, C: chain ends. Non-standard residues stand in square brackets, D forms with d. Residues, ends and D or L forms follow the SMILES beside them. ξ: configuration not given here. Bta = N[C@@H](Cc1csc2ccccc12)C(=O)O; Hyp = O=C(O)[C@@H]1C[C@@H](O)CN1; NMeNle = CCCC[C@H](NC)C(=O)O; NMeS = CN[C@@H](CO)C(=O)O; NMeA = CN[C@@H](C)C(=O)O; ξC = NC(CS)C(=O)O

T2 sequence (Q9NZQ7 19-290): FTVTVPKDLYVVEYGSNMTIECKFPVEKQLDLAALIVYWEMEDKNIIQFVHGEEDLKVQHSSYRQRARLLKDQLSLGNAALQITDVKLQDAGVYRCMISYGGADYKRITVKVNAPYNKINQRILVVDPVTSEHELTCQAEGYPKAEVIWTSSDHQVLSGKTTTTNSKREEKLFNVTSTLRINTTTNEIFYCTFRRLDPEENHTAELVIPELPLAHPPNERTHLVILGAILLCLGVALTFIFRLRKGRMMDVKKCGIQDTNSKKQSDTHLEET
T1 sequence (Q9NZQ7 with tags, fused parts or gaps): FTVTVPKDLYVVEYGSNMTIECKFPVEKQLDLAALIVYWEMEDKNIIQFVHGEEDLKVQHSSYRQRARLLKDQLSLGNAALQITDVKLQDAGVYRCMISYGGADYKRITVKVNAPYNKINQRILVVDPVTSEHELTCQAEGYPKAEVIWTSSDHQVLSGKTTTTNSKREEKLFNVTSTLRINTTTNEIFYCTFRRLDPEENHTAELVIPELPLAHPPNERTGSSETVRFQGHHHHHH

Regarding `CCCC[C@H]1C(=O)N(C)[C@@H](CO)C(=O)N[C@@H](CCCNC(=N)N)C(=O)NC(C(=O)NCC(N)=O)CSCC(=O)N[C@@H](Cc2ccc(O)cc2)C(=O)N(C)[C@@H](C)C(=O)N[C@@H](CC(N)=O)C(=O)N2CCC[C@H]2C(=O)N[C@@H](Cc2cnc[nH]2)C(=O)N[C@@H](CC(C)C)C(=O)N2CCC[C@H]2C(=O)N[C@@H](Cc2c[nH]c3ccccc23)C(=O)N[C@@H](CO)C(=O)N[C@@H](Cc2c[nH]c3ccccc23)C(=O)N1C` (stereo partly shown) [Example 9032] ({CH2CO}-Y[NMeA]NPHLPWSW[NMeNle][NMeS]R[ξC]G-NH2; thioether N-14), the IC50 at Human PD-L1/PD-1 was 6.76 to 30.3 nM; in assay [1], 4.78 to 72.9 nM.

As for `CCCC[C@H]1C(=O)N(C)[C@@H](CO)C(=O)N[C@@H](CCCNC(=N)N)C(=O)NC(C(=O)NCC(N)=O)CSCC(=O)N[C@@H](Cc2ccc(O)cc2)C(=O)N(C)[C@@H](C)C(=O)N[C@@H](CC(N)=O)C(=O)N2CCC[C@H]2C(=O)N[C@@H](Cc2cnc[nH]2)C(=O)N[C@@H](CC(C)C)C(=O)N2C[C@H](O)C[C@H]2C(=O)N[C@@H](Cc2c[nH]c3ccccc23)C(=O)N[C@@H](CO)C(=O)N[C@@H](Cc2csc3ccccc23)C(=O)N1C` (stereo partly shown) [Example 9033] ({CH2CO}-Y[NMeA]NPHL[Hyp]WS[Bta][NMeNle][NMeS]R[ξC]G-NH2; thioether N-14), the results for the IC50 (on Human PD-L1/PD-1; in assay [1]) were 6.76 to 30.3 nM and 0.158 to 4.71 nM, respectively.

`CCCC[C@H]1C(=O)N(C)[C@@H](CO)C(=O)N[C@@H](CCCNC(=N)N)C(=O)NC(C(=O)NCC(N)=O)CSCC(=O)N[C@@H](Cc2ccc(O)cc2)C(=O)N(C)[C@@H](C)C(=O)N[C@@H](CC(N)=O)C(=O)N2CCC[C@H]2C(=O)N[C@@H](Cc2cnc[nH]2)C(=O)N[C@@H](CC(C)C)C(=O)N2C[C@H](O)C[C@H]2C(=O)N[C@@H](Cc2c[nH]c3ccccc23)C(=O)N[C@@H](CO)C(=O)N[C@@H](Cc2c[nH]c3ccccc23)C(=O)N1C` (stereo partly shown) [Example 9034]: the IC50 on Human PD-L1/PD-1 lay in the range of 6.76 to 30.3 nM; in assay [1], 4.78 to 72.9 nM.

Take `CCCC[C@H]1C(=O)N(C)[C@@H](CCCC)C(=O)N[C@@H](CCCNC(=N)N)C(=O)NC(C(=O)NCC(N)=O)CSCC(=O)N[C@@H](Cc2ccc(O)cc2)C(=O)N(C)[C@@H](CO)C(=O)N[C@@H](CC(N)=O)C(=O)N2CCC[C@H]2C(=O)N[C@@H](Cc2cnc[nH]2)C(=O)N[C@@H](CC(C)C)C(=O)N2CCC[C@H]2C(=O)N[C@@H](Cc2c[nH]c3ccccc23)C(=O)N[C@@H](CO)C(=O)N[C@@H](Cc2csc3ccccc23)C(=O)N1C` (stereo partly shown) [Example 9035] ({CH2CO}-Y[NMeS]NPHLPWS[Bta][NMeNle][NMeNle]R[ξC]G-NH2; thioether N-14): the results for the IC50 (at Human PD-L1/PD-1; in assay [1]) were 6.76 to 30.3 nM and 4.78 to 72.9 nM, respectively.

For the compound `CCCC[C@H]1C(=O)N(C)[C@@H](CCCC)C(=O)N[C@@H](CCCNC(=N)N)C(=O)NC(C(=O)NCC(N)=O)CSCC(=O)N[C@@H](Cc2ccc(O)cc2)C(=O)N(C)[C@@H](CO)C(=O)N[C@@H](CC(N)=O)C(=O)N2CCC[C@H]2C(=O)N[C@@H](Cc2cnc[nH]2)C(=O)N[C@@H](CC(C)C)C(=O)N2C[C@H](O)C[C@H]2C(=O)N[C@@H](Cc2c[nH]c3ccccc23)C(=O)N[C@@H](CO)C(=O)N[C@@H](Cc2c[nH]c3ccccc23)C(=O)N1C` (stereo partly shown) [Example 9036], the IC50 at Human PD-L1/PD-1 was in the range of 0.385 to 6.74 nM; in assay [1], 0.158 to 4.71 nM.

For `CCCC[C@H]1C(=O)N(C)[C@@H](CCCC)C(=O)N[C@@H](CCCNC(=N)N)C(=O)NC(C(=O)N[C@@H](CO)C(N)=O)CSCC(=O)N[C@@H](Cc2ccc(O)cc2)C(=O)N(C)[C@@H](C)C(=O)N[C@@H](CC(N)=O)C(=O)N2CCC[C@H]2C(=O)N[C@@H](Cc2cnc[nH]2)C(=O)N[C@@H](CC(C)C)C(=O)N2CCC[C@H]2C(=O)N[C@@H](Cc2c[nH]c3ccccc23)C(=O)N[C@@H](CO)C(=O)N[C@@H](Cc2c[nH]c3ccccc23)C(=O)N1C` (stereo partly shown) [Example 9037] ({CH2CO}-Y[NMeA]NPHLPWSW[NMeNle][NMeNle]R[ξC]S-NH2; thioether N-14), the IC50 lay within 6.76 to 30.3 nM on Human PD-L1/PD-1 and 0.158 to 4.71 nM in assay [1].

`CCCC[C@H]1C(=O)N(C)[C@@H](CCCC)C(=O)N[C@@H](CCCNC(=N)N)C(=O)NC(C(=O)NCC(N)=O)CSCC(=O)N[C@@H](Cc2ccc(O)cc2)C(=O)N(C)[C@@H](CO)C(=O)N[C@@H](CC(N)=O)C(=O)N2CCC[C@H]2C(=O)N[C@@H](Cc2cnc[nH]2)C(=O)N[C@@H](CC(C)C)C(=O)N2CCC[C@H]2C(=O)N[C@@H](Cc2c[nH]c3ccccc23)C(=O)N[C@@H](CO)C(=O)N[C@@H](Cc2c[nH]c3ccccc23)C(=O)N1C` (stereo partly shown) [Example 9038] ({CH2CO}-Y[NMeS]NPHLPWSW[NMeNle][NMeNle]R[ξC]G-NH2; thioether N-14): the IC50 on Human PD-L1/PD-1 was 6.76 to 30.3 nM; in assay [1] it was 4.78 to 72.9 nM.

For `CCCC[C@H]1C(=O)N(C)[C@@H](CCCC)C(=O)N[C@@H](CCCNC(=N)N)C(=O)NC(C(=O)NCC(N)=O)CSCC(=O)N[C@@H](Cc2ccc(O)cc2)C(=O)N(C)[C@@H](CO)C(=O)N[C@@H](CC(N)=O)C(=O)N2CCC[C@H]2C(=O)N[C@@H](Cc2cnc[nH]2)C(=O)N[C@@H](CC(C)C)C(=O)N2C[C@H](O)C[C@H]2C(=O)N[C@@H](Cc2c[nH]c3ccccc23)C(=O)N[C@@H](CO)C(=O)N[C@@H](Cc2csc3ccccc23)C(=O)N1C` (stereo partly shown) [Example 9039] ({CH2CO}-Y[NMeS]NPHL[Hyp]WS[Bta][NMeNle][NMeNle]R[ξC]G-NH2; thioether N-14), the IC50 at Human PD-L1/PD-1 is 0.385 to 6.74 nM; in assay [1] it was 0.158 to 4.71 nM.

`CCCC[C@H]1C(=O)N(C)[C@@H](COCC)C(=O)N[C@@H](CCCNC(=N)N)C(=O)NC(C(=O)NCC(N)=O)CSCC(=O)N[C@@H](Cc2ccc(O)cc2)C(=O)N(C)[C@@H](C)C(=O)N[C@@H](CC(N)=O)C(=O)N2CCC[C@H]2C(=O)N[C@@H](Cc2cnc[nH]2)C(=O)N[C@@H](CC(C)C)C(=O)N2CCC[C@H]2C(=O)N[C@@H](Cc2c[nH]c3ccccc23)C(=O)N[C@@H](CO)C(=O)N[C@@H](Cc2csc3ccccc23)C(=O)N1C` (stereo partly shown) [Example 9040] ({CH2CO}-Y[NMeA]NPHLPWS[Bta][NMeNle][NMeS](Et)R[ξC]G-NH2; thioether N-14): the IC50 lay in the range of 0.385 to 6.74 nM at Human PD-L1/PD-1 and 0.158 to 4.71 nM in assay [1].

Consider `CCCC[C@H]1C(=O)N(C)[C@@H](COCC)C(=O)N[C@@H](CCCNC(=N)N)C(=O)NC(C(=O)NCC(N)=O)CSCC(=O)N[C@@H](Cc2ccc(O)cc2)C(=O)N(C)[C@@H](C)C(=O)N[C@@H](CC(N)=O)C(=O)N2CCC[C@H]2C(=O)N[C@@H](Cc2cnc[nH]2)C(=O)N[C@@H](CC(C)C)C(=O)N2CCC[C@H]2C(=O)N[C@@H](Cc2c[nH]c3ccccc23)C(=O)N[C@@H](CO)C(=O)N[C@@H](Cc2c[nH]c3ccccc23)C(=O)N1C` (stereo partly shown) [Example 9041] ({CH2CO}-Y[NMeA]NPHLPWSW[NMeNle][NMeS](Et)R[ξC]G-NH2; thioether N-14), for which the figures for the IC50 (at Human PD-L1/PD-1; in assay [1]) were 0.385 to 6.74 nM and 0.158 to 4.71 nM, respectively.

As to `CCCC[C@H]1C(=O)N(C)[C@@H](COCC)C(=O)N[C@@H](CCCNC(=N)N)C(=O)NC(C(=O)NCC(N)=O)CSCC(=O)N[C@@H](Cc2ccc(O)cc2)C(=O)N(C)[C@@H](C)C(=O)N[C@@H](CC(N)=O)C(=O)N2CCC[C@H]2C(=O)N[C@@H](Cc2cnc[nH]2)C(=O)N[C@@H](CC(C)C)C(=O)N2C[C@H](O)C[C@H]2C(=O)N[C@@H](Cc2c[nH]c3ccccc23)C(=O)N[C@@H](CO)C(=O)N[C@@H](Cc2csc3ccccc23)C(=O)N1C` (stereo partly shown) [Example 9042] ({CH2CO}-Y[NMeA]NPHL[Hyp]WS[Bta][NMeNle][NMeS](Et)R[ξC]G-NH2; thioether N-14), the figures for the IC50 (on Human PD-L1/PD-1; in assay [1]) were 0.385 to 6.74 nM and 0.158 to 4.71 nM, respectively.

In the case of `CCCC[C@H]1C(=O)N(C)[C@@H](COCC)C(=O)N[C@@H](CCCNC(=N)N)C(=O)NC(C(=O)NCC(N)=O)CSCC(=O)N[C@@H](Cc2ccc(O)cc2)C(=O)N(C)[C@@H](C)C(=O)N[C@@H](CC(N)=O)C(=O)N2CCC[C@H]2C(=O)N[C@@H](Cc2cnc[nH]2)C(=O)N[C@@H](CC(C)C)C(=O)N2C[C@H](O)C[C@H]2C(=O)N[C@@H](Cc2c[nH]c3ccccc23)C(=O)N[C@@H](CO)C(=O)N[C@@H](Cc2c[nH]c3ccccc23)C(=O)N1C` (stereo partly shown) [Example 9043], the IC50 on Human PD-L1/PD-1 was in the range of 0.385 to 6.74 nM; in assay [1], 0.158 to 4.71 nM.

Consider `CCCC[C@H]1C(=O)N(C)[C@@H](CO)C(=O)N[C@@H](CCCNC(=N)N)C(=O)NC(C(=O)NCC(N)=O)CSCC(=O)N[C@@H](Cc2ccc(O)cc2)C(=O)N(C)[C@@H](C)C(=O)N[C@@H](CC(N)=O)C(=O)N2CCC[C@H]2C(=O)N[C@@H](Cc2cnc[nH]2)C(=O)N[C@@H](CC(C)C)C(=O)N2CCC[C@H]2C(=O)N[C@@H](Cc2c[nH]c3ccccc23)C(=O)N[C@@H](CO)C(=O)N[C@@H](Cc2csc3ccccc23)C(=O)N1C` (stereo partly shown) [Example 9044] ({CH2CO}-Y[NMeA]NPHLPWS[Bta][NMeNle][NMeS]R[ξC]G-NH2; thioether N-14), for which the figures for the IC50 (on Human PD-L1/PD-1; in assay [1]) were 0.385 to 6.74 nM and 0.158 to 4.71 nM, respectively.

Regarding `CCCC[C@H]1C(=O)N[C@@H](CCCNC(=N)N)C(=O)NC(C(=O)NCC(N)=O)CSCC(=O)N[C@@H](Cc2ccc(O)cc2)C(=O)N(C)[C@@H](C)C(=O)N[C@@H](CC(N)=O)C(=O)N2CCC[C@H]2C(=O)N[C@@H](Cc2cnc[nH]2)C(=O)N[C@@H](CC(C)C)C(=O)N2C[C@H](O)C[C@H]2C(=O)N[C@@H](Cc2c[nH]c3ccccc23)C(=O)N[C@@H](CO)C(=O)N[C@@H](Cc2csc3ccccc23)C(=O)N(C)[C@@H](COCC)C(=O)N1C` (stereo partly shown) [Example 9045] ({CH2CO}-Y[NMeA]NPHL[Hyp]WS[Bta][NMeS](Et)[NMeNle]R[ξC]G-NH2; thioether N-14), the IC50 at Human PD-L1/PD-1 was 0.385 to 6.74 nM; in assay [1], 0.158 to 4.71 nM.
